Measurements reported in patent EP0100569A1, “Spasmolytically active (+)S-enantiomer of secoverine” (DUPHAR INT[…] B.V, priority 1982, dated 1984).
Where a name gives a salt, the structure may show the parent alone.

Assays:
vas deferens of the rat = assay: Potentiation of the activity of noradrenaline on the vas deferens in vitro; format: cell-based; settings: for EC (2-fold shift): Rattus norvegicus, negative logarithm of the molar concentration giving a shift to the left of a factor 2 of the noradrenaline curve, read-out: pP2-value (converted); for noradrenaline potentiation: rat vas deferens in vitro
From the text: The test used is a modification of the method as described by Ursillo and Jacobsen, J. Pharmacol. Ex. Ther. 148, (1965), 247.
The smallest dose which gave a potentiating effect was […], and the potentiating activity was maximum in a quantity of 5 x 10 7M. Higher dosages caused a non--specific decrease of the maximum of the noradrenaline curve.
For quantifying the effect at the 50% point of the contraction curve (maximum of the control noradrenaline curve = 100%), the shift of the curve obtained with the compound to be tested (expressed as DR) was measured. The pP2-values were calculated in the same manner as the pA2-values mentioned sub b), according to the equation
^pP2 ^= -log [secoverine] + log (DR-1).

cornea of male mice = assay: Local anaesthetic activity on the cornea; format: in vivo; settings: concentration of solution giving local anaesthesia in 50% of the animals, 10 per dose, determined graphically
Protocol: The anaesthetic activity on the cornea of male mice (18-22 g), 10 animals per dose, was determined according to the method by Weidmann and Petersen, J. Pharmacol. Exp. Ther., 115 (1955), 246. The concentration of the solution of the compounds which gave local anaesthesia in 50% of the animals was determined graphically (EC50--value): […]

rat jejunum = assay: Peripheral spasmolytic activity in vitro, furtrethonium as spasmogen; format: cell-based
Protocol: (§1) The required organs were isolated from killed guinea pigs and the contents and adherent tissues were carefully removed from suitable pieces. The said organs were then suspended in a bath containing 50 ml of Tyrode solution through which oxygen was led. The spasmogenically active substance (carbachol) was added to the bath inter- mittem tly and, after a constant response to the spasmogen had been obtained, the spasmolytic activity of the substances to be tested was measured by adding them to the bath 30 seconds prior to the spasmogen.
Similar results were obtained by using rat jejunum as an organ and using furtrethonium as a spasmogenically active substance: the (+)-enantiomer of secoverine now was 2.10 times as active as the racemate.

guinea pigs = assay: Anticholinergic activity in vivo, carbachol as spasmogen; settings: i.v.
Protocol: These tests were carried out according to the method by J.M.A. Zwagemakers, Arzneimittelforschung, 30 (II), (1980), 1517-1526 in which carbachol was used as a spasmogenically active substance. After a constant response to the spasmogen had been obtained, the compound to be tested was administered intravenously (i.v.) to guinea pigs 3 minutes prior to the next quantity of spasmogenically active substance. The activity of the compounds was determined for 52 minutes. Contractions obtained after preceding administration of the substance to be tested were expressed as percentages of the average of two control values and were plotted graphically. The average percentage of inhibition during the period of 52 minutes was calculated from the area under the curve, and the maximum inhibition and the duration of the spasmolytic activity were estimated by means of the time-contraction curve. The spasmolytic activity is considered to be terminated when two successive contractions show less than 20% inhibition.

guinea pig ileum = assay: Peripheral spasmolytic activity in vitro, 4-point analysis, carbachol as spasmogen; format: cell-based
Protocol: These tests were carried out according to the normal 4--point analysis in which the termina-1 guinea pig ileum was used as isolated organ and carbachol was used as a cholinergic spasmogen.
as §1
The relative activity of the (+)-enantiomer of secoverine as compared with the racemate was calculated fron, a series of 4-point assays: the (+)-enantiomer of secoverine was 1.86 times as active as the racemate.

Compound	EC (2-fold shift) (vas deferens of the rat) [µM]	noradrenaline potentiation (vas deferens of the rat)	EC50-value (% w/vol) (cornea of male mice)	relative activity as compared with the racemate (rat jejunum) [times]	activity in vivo relative to the racemate (guinea pigs)	relative activity as compared with the racemate (guinea pig ileum; guinea pig ileum, carbachol, series of 4-point assays) [times]	anticholinergic spasmolytic activity in peripheral organs relative to the racemate (guinea pig ileum; summary statement)
CCN(CCCC(=O)C1CCCCC1)C(C)Cc1ccc(OC)cc1 (racemic) [racemate]	0.309	significant noradrenaline potentiation	0.13				
CCN(CCCC(=O)C1CCCCC1)[C@@H](C)Cc1ccc(OC)cc1 [(+)-enantiomer of secoverine, (+)S-1-cyclohexyl-4-[ethyl(p-methoxy-α-methylphenethyl)--amino]-l-butanone hydrochloride]	0.263	significant noradrenaline potentiation	0.20	2.10	about twice as active	1.86	approximately twice as strong
CCN(CCCC(=O)C1CCCCC1)[C@H](C)Cc1ccc(OC)cc1 [(-)-enantiomer of secoverine]	0.17	significant noradrenaline potentiation	0.08				
